Assay results taken from patent US20240051985A1, “METTL3 MODULATORS” (ACCENT THERAPEUTICS, INC., priority 2020, published 2024).

How the values were obtained:
[1] = target: METTL3/METTL14 (Homo sapiens, UniProt Q86U44); assay: METTL3-14 standard enzyme assay (3H-SAM flashplate); details: Table 4; METTL3 biochemical assay
Procedure, shortened: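 METTL3/METTL14 (2.5 nM) preincubated 5 min, then reacted with 3′-biotinylated RNA UCUGGACUAAA (100 nM) and 3H-SAM (100 nM) for 30 min at ambient temperature in 20 mM HEPES pH 7.5, 50 mM KCl, 250 μM MgCl2, 1 mM DTT. Quenched with 15 μM cold SAM; product captured on streptavidin flashplates, scintillation counted.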

[2] = target: PRMT5-MEP50 (Homo sapiens, UniProt O14744); assay: PRMT5 assay (3H-SAM flashplate); details: Table 4; PRMT5 biochemical assay
Procedure, shortened: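 PRMT5-MEP50 at 2.5 nM, preincubated 5 min with compound in 20 mM Tris-HCl pH 8.0, 1 mM DTT, 0.01% Tween at ambient temperature. Biotinylated acetylated histone H4 peptide (100 nM) and 3H-SAM (250 nM) react 60 min, quenched with 15 μM cold SAM; methylation captured on streptavidin flashplates and scintillation-counted.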

[3] = target: T1, FLT3 (Homo sapiens, UniProt P36888); assay: FLT3 Caliper assay; type: biochemical; details: Table 4; read-out: FLT3 Calipher assay IC50
T1 sequence (P36888 27-993): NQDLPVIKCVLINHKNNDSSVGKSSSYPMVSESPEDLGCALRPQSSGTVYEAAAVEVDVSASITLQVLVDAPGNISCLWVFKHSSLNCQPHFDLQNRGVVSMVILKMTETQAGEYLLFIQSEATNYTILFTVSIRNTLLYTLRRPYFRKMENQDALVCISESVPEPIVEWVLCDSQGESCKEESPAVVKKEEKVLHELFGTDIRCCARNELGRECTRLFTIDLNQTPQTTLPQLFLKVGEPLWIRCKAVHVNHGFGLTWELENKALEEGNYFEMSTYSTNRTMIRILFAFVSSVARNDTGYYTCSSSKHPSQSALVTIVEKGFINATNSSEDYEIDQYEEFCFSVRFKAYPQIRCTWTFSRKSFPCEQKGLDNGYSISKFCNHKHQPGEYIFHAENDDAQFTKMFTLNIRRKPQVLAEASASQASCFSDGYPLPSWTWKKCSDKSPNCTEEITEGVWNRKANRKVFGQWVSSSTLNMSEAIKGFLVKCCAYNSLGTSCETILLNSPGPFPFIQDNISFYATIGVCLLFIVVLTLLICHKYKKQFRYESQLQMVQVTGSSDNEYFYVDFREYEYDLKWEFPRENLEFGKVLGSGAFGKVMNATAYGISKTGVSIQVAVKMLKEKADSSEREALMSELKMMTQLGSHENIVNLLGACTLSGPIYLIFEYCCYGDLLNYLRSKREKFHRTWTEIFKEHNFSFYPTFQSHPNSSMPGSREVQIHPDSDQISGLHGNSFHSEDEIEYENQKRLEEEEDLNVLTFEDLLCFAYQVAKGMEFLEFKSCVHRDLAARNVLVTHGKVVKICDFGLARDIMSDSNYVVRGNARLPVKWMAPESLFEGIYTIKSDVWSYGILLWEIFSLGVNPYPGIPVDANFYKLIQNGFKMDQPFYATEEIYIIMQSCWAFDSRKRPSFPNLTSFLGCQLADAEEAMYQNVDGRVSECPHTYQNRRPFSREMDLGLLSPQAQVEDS
Experimental: (§1) FLT3/FLT3-ITD Caliper Assays
(§2) Assays were performed in a 20 μl-volume in 384-well polypropylene microplates (Perkin Elmer Proxiplate, cat. No. 6059480) at ambient temperature. Optimized 1× assay buffer was 50 mM Hepes pH 7.5, 2 mM DTT, 0.01% Tween, 0.01% BSA, 10 mM MgCl2. For compound screening FLT3 (final concentration, f.c.=0.9 nM) or FLT3-ITD (f.c.=7 nM) was added using a Multidrop Combi (ThermoFisher Scientific, Waltham, MA) and preincubated for 10 min. Reactions were started by adding fluorescein-peptide (sequence 5-FAM-EAIYAAPFAKKK-CONH2) (f.c.=300 μM) and ATP (FLT3 f.c.=97 μM FLT3-ITD f.c.=146 μM) substrates. Reactions proceeded for 60 minutes. The reactions were stopped with LabChip ProfilerPro Separation Buffer containing EDTA (f.c.=20 mM). The plates were read on a Caliper microfluidics reader (PerkinElmer, Waltham, MA).

[4] = target: T2, FLT3-ITD (Homo sapiens, UniProt P36888); assay: FLT3-ITD Caliper assay; type: biochemical; details: Table 4; read-out: FLT3-ITD Calipher assay IC50
T2 sequence (P36888 1-993): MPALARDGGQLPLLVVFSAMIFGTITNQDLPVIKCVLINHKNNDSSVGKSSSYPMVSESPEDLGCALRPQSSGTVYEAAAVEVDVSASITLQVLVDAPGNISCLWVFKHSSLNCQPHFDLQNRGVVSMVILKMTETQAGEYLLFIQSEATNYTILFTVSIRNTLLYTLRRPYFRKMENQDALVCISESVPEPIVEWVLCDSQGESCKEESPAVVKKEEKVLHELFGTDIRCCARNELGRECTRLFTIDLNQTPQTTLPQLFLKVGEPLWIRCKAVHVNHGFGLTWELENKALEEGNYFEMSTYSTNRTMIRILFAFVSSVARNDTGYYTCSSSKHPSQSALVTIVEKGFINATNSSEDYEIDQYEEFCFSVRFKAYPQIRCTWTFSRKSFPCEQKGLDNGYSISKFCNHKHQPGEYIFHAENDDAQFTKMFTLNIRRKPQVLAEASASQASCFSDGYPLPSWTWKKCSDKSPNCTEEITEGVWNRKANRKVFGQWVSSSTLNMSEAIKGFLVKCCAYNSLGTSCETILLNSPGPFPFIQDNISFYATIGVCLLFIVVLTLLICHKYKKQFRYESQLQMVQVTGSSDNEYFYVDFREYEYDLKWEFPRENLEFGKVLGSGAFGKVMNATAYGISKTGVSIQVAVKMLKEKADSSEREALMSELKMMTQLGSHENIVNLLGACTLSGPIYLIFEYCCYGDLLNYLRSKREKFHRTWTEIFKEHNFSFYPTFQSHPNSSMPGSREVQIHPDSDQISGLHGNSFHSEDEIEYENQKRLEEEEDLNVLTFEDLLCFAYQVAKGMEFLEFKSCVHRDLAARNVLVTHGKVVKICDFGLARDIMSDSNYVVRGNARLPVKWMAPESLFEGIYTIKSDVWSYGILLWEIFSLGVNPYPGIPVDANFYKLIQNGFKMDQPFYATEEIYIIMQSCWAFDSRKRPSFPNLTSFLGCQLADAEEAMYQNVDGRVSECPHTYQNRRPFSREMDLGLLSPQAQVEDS
Experimental: as §1, §2

METTL3/METTL14, sequence (Q86U44 whole entry, species assumed): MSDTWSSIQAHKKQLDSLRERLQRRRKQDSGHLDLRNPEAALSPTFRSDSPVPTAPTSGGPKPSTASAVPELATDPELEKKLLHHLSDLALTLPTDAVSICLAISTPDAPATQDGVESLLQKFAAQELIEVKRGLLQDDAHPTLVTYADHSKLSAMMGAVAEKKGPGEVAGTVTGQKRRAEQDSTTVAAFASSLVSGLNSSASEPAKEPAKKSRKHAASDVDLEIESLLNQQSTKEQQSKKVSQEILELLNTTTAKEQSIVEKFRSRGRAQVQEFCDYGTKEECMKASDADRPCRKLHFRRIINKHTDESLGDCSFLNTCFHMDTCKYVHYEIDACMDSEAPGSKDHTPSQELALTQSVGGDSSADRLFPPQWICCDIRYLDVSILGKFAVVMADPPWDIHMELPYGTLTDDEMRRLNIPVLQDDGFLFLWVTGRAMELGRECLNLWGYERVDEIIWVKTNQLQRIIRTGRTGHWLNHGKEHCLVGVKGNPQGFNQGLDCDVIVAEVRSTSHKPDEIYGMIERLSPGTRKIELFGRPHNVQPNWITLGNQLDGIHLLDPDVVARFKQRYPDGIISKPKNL
METTL3/METTL14, sequence (Q9HCE5 whole entry partner, species assumed): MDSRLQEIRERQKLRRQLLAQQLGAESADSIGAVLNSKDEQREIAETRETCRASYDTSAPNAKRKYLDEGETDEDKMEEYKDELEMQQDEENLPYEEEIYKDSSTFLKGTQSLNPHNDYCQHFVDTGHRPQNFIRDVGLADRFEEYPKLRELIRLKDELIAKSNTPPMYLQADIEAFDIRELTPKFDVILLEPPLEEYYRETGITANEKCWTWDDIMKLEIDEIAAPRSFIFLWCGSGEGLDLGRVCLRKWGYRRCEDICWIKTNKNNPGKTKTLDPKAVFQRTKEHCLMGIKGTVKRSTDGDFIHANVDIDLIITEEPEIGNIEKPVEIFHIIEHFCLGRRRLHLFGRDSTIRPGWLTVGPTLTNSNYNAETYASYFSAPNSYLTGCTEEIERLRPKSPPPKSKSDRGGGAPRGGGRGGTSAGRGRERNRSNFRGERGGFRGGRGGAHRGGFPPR
PRMT5-MEP50, sequence (O14744 whole entry): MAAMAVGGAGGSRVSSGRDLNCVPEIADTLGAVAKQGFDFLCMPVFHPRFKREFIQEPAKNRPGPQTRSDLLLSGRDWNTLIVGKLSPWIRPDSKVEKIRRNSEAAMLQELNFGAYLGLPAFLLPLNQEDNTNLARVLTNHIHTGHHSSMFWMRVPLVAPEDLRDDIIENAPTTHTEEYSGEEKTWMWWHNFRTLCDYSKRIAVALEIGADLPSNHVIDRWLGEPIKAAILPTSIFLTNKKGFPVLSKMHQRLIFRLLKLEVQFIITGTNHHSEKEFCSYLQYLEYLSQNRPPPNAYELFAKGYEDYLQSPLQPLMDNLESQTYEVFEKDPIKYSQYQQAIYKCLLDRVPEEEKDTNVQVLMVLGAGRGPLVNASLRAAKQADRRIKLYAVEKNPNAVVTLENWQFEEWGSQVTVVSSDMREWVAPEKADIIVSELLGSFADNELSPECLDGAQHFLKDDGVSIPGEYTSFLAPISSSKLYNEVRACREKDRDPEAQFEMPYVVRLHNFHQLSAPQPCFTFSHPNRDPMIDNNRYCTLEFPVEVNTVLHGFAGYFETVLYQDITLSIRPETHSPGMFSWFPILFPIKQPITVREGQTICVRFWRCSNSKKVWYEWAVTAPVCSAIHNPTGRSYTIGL
PRMT5-MEP50, sequence (Q9BQA1 whole entry partner): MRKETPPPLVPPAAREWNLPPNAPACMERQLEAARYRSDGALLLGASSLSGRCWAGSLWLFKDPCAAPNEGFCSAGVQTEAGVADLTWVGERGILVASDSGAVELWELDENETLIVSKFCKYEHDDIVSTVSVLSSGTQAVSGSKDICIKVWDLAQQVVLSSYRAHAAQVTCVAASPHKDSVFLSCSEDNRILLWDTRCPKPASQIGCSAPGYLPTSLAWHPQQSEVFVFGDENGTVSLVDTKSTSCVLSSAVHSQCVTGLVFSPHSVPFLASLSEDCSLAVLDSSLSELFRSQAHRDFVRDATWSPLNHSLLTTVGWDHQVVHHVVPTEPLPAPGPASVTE

SMILES	IC50 [1] [nM]	IC50 [2] [nM]	IC50 [3] [nM]	IC50 [4] [nM]
COCCNc1ccnc(NC(=O)[C@H]2O[C@@H](n3cc(-c4ccn(C)n4)c4c(N)ncnc43)[C@H](O)[C@@H]2O)c1 [Compound I-165]	100 to 1000	100 to 1000	≥ 1000	≥ 1000
Cn1ccc(-c2cn([C@@H]3O[C@H](C(=O)NC4CCc5nc(N)sc5C4)[C@@H](O)[C@H]3O)c3ncnc(N)c23)n1 (stereo in doubt) [Compound I-161]	100 to 1000	100 to 1000	≥ 1000	≥ 1000
CN(C)c1ccnc(NC(=O)[C@H]2O[C@@H](n3cc(-c4ccn(C)n4)c4c(N)ncnc43)[C@H](O)[C@@H]2O)c1 [Compound I-166]	100 to 1000	10 to 100	≥ 1000	≥ 1000
Cn1ccc(-c2cn([C@@H]3O[C@H](C(=O)Nc4ccc5ccc(N6CCC6)nc5c4)[C@@H](O)[C@@H]3F)c3ncnc(N)c23)n1 [Compound I-33, (2S,3R,4S,5R)-5-[4-amino-5-(1-methyl-1H-pyrazol-3-yl)-7H-pyrrolo[2,3-d]pyrimidin-7-yl]-N-[2-(azetidin-1-yl)quinolin-7-yl]-4-fluoro-3-hydroxyoxolane-2-carboxamide]	< 10	≥ 1000	≥ 1000	≥ 1000
Cn1ccc(-c2cn([C@@H]3O[C@H](C(=O)Nc4ccnc(NC5CCC5)c4)[C@@H](O)[C@H]3O)c3ncnc(N)c23)n1 [Compound I-167]	100 to 1000	100 to 1000	≥ 1000	≥ 1000
Cc1ccnc(NC(=O)[C@H]2O[C@@H](n3cc(-c4ccn(C)n4)c4c(N)ncnc43)[C@H](O)[C@@H]2O)c1 [Compound I-172]	≥ 1000	≥ 1000	≥ 1000	≥ 1000
N#Cc1cn([C@@H]2O[C@H](C(=O)Nc3ccc4ccc(N5CCC5)nc4c3)[C@@H](O)[C@H]2O)c2ncnc(N)c12 [Compound I-52, (2S,3S,4R,5R)-5-{4-amino-5-cyano-7H-pyrrolo[2,3-d]pyrimidin-7-yl}-N-[2-(azetidin-1-yl)quinolin-7-yl]-3,4-dihydroxyoxolane-2-carboxamide]	10 to 100	100 to 1000	100 to 1000	100 to 1000
Cn1ccc(-c2cn([C@@H]3O[C@H](C(=O)Nc4ccon4)[C@@H](O)[C@H]3O)c3ncnc(N)c23)n1 [Compound I-171]	≥ 1000	≥ 1000	≥ 1000	≥ 1000

Results, then the molecule that gave them:

IC50 [1] [nM]	IC50 [2] [nM]	IC50 [3] [nM]	IC50 [4] [nM]	SMILES
≥ 1000	100 to 1000	≥ 1000	≥ 1000	CCN(CC)C(=O)[C@H]1O[C@@H](n2cc(-c3ccn(C)n3)c3c(N)ncnc32)[C@H](O)[C@@H]1O [Compound I-150]
100 to 1000	10 to 100	≥ 1000	≥ 1000	Cn1ccc(-c2cn([C@@H]3O[C@H](C(=O)NCC4(O)CCNCC4)[C@@H](O)[C@H]3O)c3ncnc(N)c23)n1 [Compound I-198]
100 to 1000	≥ 1000	≥ 1000	≥ 1000	CN1CCC(NC(=O)[C@H]2O[C@@H](n3cc(-c4ccn(C)n4)c4c(N)ncnc43)[C@@H](F)[C@@H]2O)CC1 [Compound I-60]
≥ 1000	10 to 100	≥ 1000	≥ 1000	CN(C)CCCNC(=O)[C@H]1O[C@@H](n2cc(-c3ccn(C)n3)c3c(N)ncnc32)[C@H](O)[C@@H]1O [Compound I-183]
≥ 1000	10 to 100	≥ 1000	≥ 1000	Cn1ccc(-c2cn([C@@H]3O[C@H](C(=O)NCCCN4CCCC4)[C@@H](O)[C@H]3O)c3ncnc(N)c23)n1 [Compound I-181]
≥ 1000	≥ 1000	≥ 1000	≥ 1000	Cn1ccc(-c2cn([C@@H]3O[C@H](C(=O)N[C@H]4CCC(=O)NC4)[C@@H](O)[C@H]3O)c3ncnc(N)c23)n1 [Compound I-179]
≥ 1000	100 to 1000	≥ 1000	≥ 1000	C[C@@H](NC(=O)[C@H]1O[C@@H](n2cc(-c3ccn(C)n3)c3c(N)ncnc32)[C@H](O)[C@@H]1O)C1CCNCC1 [Compound I-196]
